Like-named read-outs stand apart in the source and are kept apart here.
What was measured:
[1] = Human coffee intervention study: plasma concentrations after roasted coffee brew by UPLC-MS/MS; format: in vivo; conditions: for plasma level at baseline / concentration at 0 h: 0 h; for plasma level at baseline: before coffee intake; for samples above the LLOQ / study participants in whom the conjugate appeared within 10 h after coffee: n = 10; for concentration at 1 h / concentration at 4 h / concentration at 10 h / concentration at 0 h: human, plasma, 200 mL; for concentration at 1 h / concentration at 4 h / concentration at 10 h / Cmax / concentration at 0 h: oral; for Cmax / time of estimated cmax: human plasma after coffee brew (200 mL); for Cmax: n = 10, mean ± SD, read-out: estimated cmax in plasma; for time of estimated cmax: sampling only at 0, 1, 4, 10 h
Protocol: The study included ten volunteers (5 females, 5 males) (age: 28.3 ± 2.3 years; BMI: 21.89 ± 2.22 kg/m^2). The intervention study took place from November 5, 2021, to February 17, 2022, in the core facility human studies of the ZIEL Institute for Food and Health of the Technical University of Munich. The study was performed in agreement with the Declaration of Helsinki, and all participants gave written informed consent. The study was approved by the Ethics Committee of the Technical University of Munich (5798/13 S-SR) and registered in the German Register of Clinical Studies (DRKS00005083).
The study participants underwent a dietary protocol that excluded all forms of coffee consumption. Additionally, chocolate, black/green/white, mate tea, cola, energy drinks, and beauty products containing caffeine (e.g., shampoos, creams) were prohibited 1 week before the test day. Furthermore, the study participants received a standardized meal the evening before the test day. The meal was composed of pasta, margarine, and salt, and the amount of energy was calculated based on the participant’s basal energy demand. On the morning of the test day, the participants were in a fastened state and received water (control samples) or coffee brew (coffee intervention) as breakfast. Blood was sampled before coffee intake (0 h) and at defined time points (1, 4, and 10 h) after coffee intake. 6 h after the coffee intake, the participants received lunch, the same standardized meal as the previous dinner. The administered coffee was prepared from a coffee capsule (Nespresso, ROMA) with 100 mL water. The administered volume of the coffee brew was 200 mL. Based on the coffee powder per capsule ([…]), the concentrations of 2 (2.8 μmol/g) and 3 (1.1 μmol/g), respectively,[10] and an estimated extraction rate of 100%, the total ingested amounts were 33.6 μmol (2) and 13.2 μmol (3).
In an Eppendorf tube (1.5 mL), aliquots (50 μL each) of the calibration standard, sample, or QC, respectively, were mixed with the IS solution (1000 nM in ethanol, 50 μL) and acetonitrile/ethanol (9 + 1, v + v, 50 μL) was added. After vortexing, suspensions were cleared by centrifugation (12,000 rpm, 4 °C, 10 min), and the supernatant (∼100 μL) was transferred to an HPLC vial with 200 μL insert for analysis (5 μL injection).
The UPLC–MS/MS system consisted of a Shimadzu Nexera X2 UPLC system (Shimadzu, Duisburg, Germany) hyphenated to a QTrap 5500 MS/MS system (Sciex, Darmstadt, Germany) operating in negative electrospray (ESI^–) mode with the following ion source parameters: ion spray voltage: −4500 V; source temperature: 500 °C; nebulizer gas: 55 psi; heater gas: 65 psi; and curtain gas: 35 psi. The MS/MS parameters, including the collision cell entrance potential (CEP), declustering potential (DP), collision energy (CE), and cell exit potential (CXP), were tuned for each compound and mass transition and are summarized in Supporting Table S3. The dwell time for each compound was 30 ms, and the total cycle time was 0.75 s. Chromatographic separation was achieved on a C18 column (Kinetex C18, 100 mm × 2.1 mm, 1.7 μm, Phenomenex, Aschaffenburg, Germany) at a flow rate of 500 μL/min flow rate. Eluent A was 0.1% formic acid in water, and eluent B was 0.1% formic acid in acetonitrile. B was kept at 3% (1 min), increased to 25% (in 3 min), 90% (in 2 min, 1 min isocratic), and 3% (0.5 min, 2.5 min isocratic). The total time of the analysis was 10 min. The column effluent was introduced from the waste to the MS/MS system between 3 and 7 min.
We applied this method to human plasma samples from a coffee intervention study to investigate the appearance of coffee compounds 1–3 and metabolites M1–M3. Ten participants underwent a washout period (7 days) and then consumed one dose of […]. Blood samples were taken at baseline (0 h) and 1, 4, and 10 h after the intervention. […]

[2] = set-up: method as in PMID 36442242; conditions: coffee drinkers' urine, four of six samples, qualitative; cited from earlier work
[3] = both sexes, 1 h after coffee brew (200 mL), human plasma, values above LLOQ, read-out: plasma concentration, mean ± SD
[4] = both sexes, 4 h after coffee brew (200 mL), human plasma, values above LLOQ, read-out: plasma concentration, mean ± SD
[5] = both sexes, 10 h after coffee brew (200 mL), human plasma, values above LLOQ, read-out: plasma concentration, mean ± SD
[6] = participant cbdu, 10 h after coffee, read-out: plasma concentration, individual
[7] = participant eogo, 1 h after coffee, b = below LLOQ, read-out: plasma concentration, individual
[8] = participant eogo, 10 h after coffee, b = below LLOQ, read-out: plasma concentration, individual
[9] = participant ggot, 4 h after coffee, b = below LLOQ, read-out: plasma concentration, individual
[10] = participant ggot, 10 h after coffee, b = below LLOQ, read-out: plasma concentration, individual
[11] = participant imhz, 10 h after coffee, read-out: plasma concentration, individual
[12] = participant mgjj, 10 h after coffee, read-out: plasma concentration, individual
[13] = participant rrmk, 4 h after coffee, b = below LLOQ, read-out: plasma concentration, individual
[14] = participant rrmk, 10 h after coffee, read-out: plasma concentration, individual
[15] = participant wbqj, 4 h after coffee, b = below LLOQ, read-out: plasma concentration, individual
[16] = participant wbqj, 10 h after coffee, b = below LLOQ, read-out: plasma concentration, individual
[17] = participant wbvs, 1 h after coffee, read-out: plasma concentration, individual
[18] = participant wbvs, 4 h after coffee, read-out: plasma concentration, individual
[19] = participant wbvs, 10 h after coffee, read-out: plasma concentration, individual
[20] = participant xrwz, 10 h after coffee, b = below LLOQ, read-out: plasma concentration, individual
[21] = participant ayia, 1 h after coffee, read-out: plasma concentration, individual
[22] = participant ayia, 10 h after coffee, read-out: plasma concentration, individual
[23] = participant cbdu, 1 h after coffee, b = below LLOQ, read-out: plasma concentration, individual
[24] = participant ggot, 1 h after coffee, read-out: plasma concentration, individual
[25] = participant wbqj, 1 h after coffee, b = below LLOQ, read-out: plasma concentration, individual

SMILES	plasma level at baseline ([1]; human plasma)	samples above the LLOQ ([1]; 10 h after coffee) [%]	concentration at 1 h [1, 3] [nM]	concentration at 4 h [1, 4] [nM]	concentration at 10 h [1, 5] [nM]	Cmax ([1]; both sexes) [nM]	time of estimated cmax [1] [h]	study participants in whom the conjugate appeared within 10 h after coffee ([1]; human plasma) [%]	concentration at 10 h [1, 6] [nM]	concentration at 1 h [1, 7] [nM]	concentration at 10 h [1, 8] [nM]	concentration at 4 h [1, 9] [nM]	concentration at 10 h [1, 10] [nM]	concentration at 10 h [1, 11] [nM]	concentration at 10 h [1, 12] [nM]	concentration at 4 h [1, 13] [nM]	concentration at 10 h [1, 14] [nM]	concentration at 4 h [1, 15] [nM]	concentration at 10 h [1, 16] [nM]	concentration at 10 h [1, 19] [nM]	further results
CC1C(=O)C23CCC4C(C(=O)O)CC(OC5OC(C(=O)O)C(O)C(O)C5O)CC4(C)C2CCC1C3 [M3, 2β-hydroxy-15-oxoatractylan-4α-carboxylic acid-2-O-β-D-glucuronide]	below the LLOQ	90	1.7	1.3 ± 1.1	55 ± 57.7	55 ± 57.7	10	90	11.6	0.3	40.8	2.9	180	9.3	24.3	0.7	50.6	0.9	64.1	111	plasma concentration in samples from two individuals ([1]; 10 h after coffee, comparatively high individual values): 180.0 nM; concentration at 10 h ([1]; 10 h after coffee, comparatively high individual values, read-out: plasma concentration in samples from two individuals): 111 nM; concentration at 0 h ([1]; participant eogo, b = below LLOQ, read-out: plasma concentration, individual): 0.4 nM; concentration at 4 h ([1]; participant eogo, 4 h after coffee, b = below LLOQ, read-out: plasma concentration, individual): 0.1 nM; concentration at 0 h ([1]; participant wbvs, b = below LLOQ, read-out: plasma concentration, individual): 0.9 nM; concentration at 1 h [1, 17]: 1.7 nM; concentration at 4 h [1, 18]: 1.9 nM; concentration at 10 h [1, 20]: 4.1 nM; urine samples in which detected [2]: 67%
CC1C(=O)C23CCC4C(C(=O)OC5OC(C(=O)O)C(O)C(O)C5O)CC(O)CC4(C)C2CCC1C3 [M2, 2β-hydroxy-15-oxoatractylan-4α-carboxy-19-O-β-D-glucuronide]	below the LLOQ	80	0.63 ± 0.14		2.5 ± 1.9	2.5 ± 1.9	10	80	0.9		3.1		0.6	1.1	0.8				2.8	5.1	plasma concentration, mean ± SD ([1]; 1 h after coffee brew (200 mL), human plasma, values above LLOQ): 0.6 ± 0.1 nM; concentration at 1 h [1, 21]: 0.5 nM; concentration at 4 h ([1]; participant ayia, 4 h after coffee, b = below LLOQ, read-out: plasma concentration, individual): 0.1 nM; concentration at 10 h [1, 22]: 5.6 nM; concentration at 1 h [1, 23]: 0.1 nM; concentration at 1 h [1, 24]: 0.7 nM; concentration at 0 h ([1]; participant rrmk, b = below LLOQ, read-out: plasma concentration, individual): 0.1 nM; concentration at 1 h [1, 25]: 0.01 nM; urine samples in which detected [2]: 67%
CC1C(=O)C23CCC4C(C(=O)O)CC(O)CC4(C)C2CCC1C3 (stereo not drawn) [compound 5, 2β-hydroxy-15-oxoatractylan-4α-carboxylic acid]																					appearance in plasma after coffee ([1]; all samples 1, 4, 10 h after coffee brew (200 mL), human plasma): did not appear in the plasma
C=C1[C@@H]2CC[C@@H]3[C@@](CCC4[C@H](C(=O)O)C[C@@H](O)C[C@]43C)(C2)[C@@H]1O (some centres unmarked) [compound 1, atractyligenin]			41.9 ± 12.5	40.1 ± 22.9	23.3 ± 10.5	41.9 ± 12.5	1		19	43.4	8	13.8	2.3	43.7	16.5	68.1	17.9	59.7	4.7	17	drop of plasma concentration until 10 h ([1]; from the level between 1 and 4 h to 10 h after coffee): ~45%; concentration at 1 h [1, 21]: 36.5 nM; concentration at 10 h [1, 22]: 25.6 nM; concentration at 1 h [1, 23]: 31.6 nM; concentration at 1 h [1, 24]: 49.2 nM; concentration at 1 h ([1]; participant imhz, 1 h after coffee, read-out: plasma concentration, individual): 70.5 nM; concentration at 4 h ([1]; participant imhz, 4 h after coffee, read-out: plasma concentration, individual): 19.6 nM; concentration at 1 h ([1]; participant mgjj, 1 h after coffee, read-out: plasma concentration, individual): 34.7 nM; concentration at 4 h ([1]; participant mgjj, 4 h after coffee, read-out: plasma concentration, individual): 17.7 nM; concentration at 1 h ([1]; participant rrmk, 1 h after coffee, read-out: plasma concentration, individual): 42.7 nM; concentration at 1 h [1, 25]: 49.1 nM; concentration at 1 h [1, 17]: 36.1 nM; concentration at 4 h [1, 18]: 35.2 nM; concentration at 1 h ([1]; participant xrwz, 1 h after coffee, read-out: plasma concentration, individual): 26 nM; concentration at 10 h [1, 20]: 10.4 nM; participants in whom plasma concentration increased between 4 and 10 h ([1]; individual plots, after first maximum at 1 h): 60%

Source: article PMC10722499, “Consumption of Roasted Coffee Leads to Conjugated Metabolites of Atractyligenin in Human Plasma” (Journal of Agricultural and Food Chemistry, 2023)
